Experimental findings from patent publication US6884813B2, “Antimicrobial dihydrothiazine and dihydrothiopyran oxazolidinones” (Pharmacia & Upjohn Company, priority 2002, dated 2005) are described below.

The subject of one series is SPNE 9912. As to the kind of experiment: Minimum inhibitory concentration (MIC) by agar dilution. In kind it is cell-based. Conditions: Streptococcus pneumoniae, lowest concentration of drug that inhibits visible growth of the organism, strain SPNE 9912, read-out: Antibacterial Activity, Minimum Inhibitory Concentration (MIC μg/mL) SPNE 9912. From the text:
Compounds of this invention have useful activity against a variety of organisms. The in vitro activity of compounds of this invention can be assessed by standard testing procedures such as the determination of minimum inhibitory concentration (MIC) by agar dilution as described in “Approved Standard. Methods for Dilution Antimicrobial Susceptibility Tests for Bacteria That Grow Aerobically”, 3rd. ed., published 1993 by the National Committee for Clinical Laboratory Standards, Villanova, Pa., USA. Minimum inhibitory concentration (MIC) refers to lowest concentration of drug (μg/mL) that inhibits visible growth of the organism. “- -” refers to the activity data is not available.
(Agar dilution tests growth on a series of plates holding different concentrations.)

Structures are written as SMILES. Values after ≈ are worked out from the molar mass of the structure shown.

On to `CCC(=O)NC[C@H]1CN(c2ccc(C3C=CS(=O)(=O)CC3)cc2)C(=O)O1` (stereo partly drawn) [Example 18, N-[[(5S)-3-[4-(3,4-dihydro-1,1-dioxido-2H-thiopyran-4-yl)phenyl]-2-oxo-5-oxazolidinyl]methyl]propionamide], for which the melting point – broadly, the temperature, or range, at which the solid turns liquid – was 144 to 147 °C. The MIC in the series on SPNE 9912 was determined as 1 µg/mL (≈ 2.64 µM).
In turn, `COC(=O)NC[C@H]1CN(c2ccc(C3C=CS(=O)(=O)CC3)cc2)C(=O)O1` (stereo partly drawn) [Example 19, (S)-[[3-[4-(3,4-dihydro-1,1-dioxido-2H-thiopyran-4-yl)phenyl]-2-oxo-5-oxazolidinyl]methyl]carbamic acid, methyl ester] yielded a melting point of 196 to 197 °C. Moreover, in the series with SPNE 9912, the MIC amounted to 2 µg/mL (≈ 5.26 µM).
